Patent US10889625B2, “Peptide-based methods for treating neurological injury” (THE REGENTS OF THE UNIVERSITY OF COLORADO, a body corporate, priority 2016, dated 2021)
Residues, ends and D or L forms follow the SMILES beside them.

Key:
[1] = target: TRPM2 ion channels (Mus musculus, UniProt Q91YD4); conditions: males and females, background statement; cited from earlier work
[2] = target: T1, TRPM2 channels (Mus musculus, UniProt Q91YD4); experiment: 60 min tMCAO, total hemisphere infarct volume (TTC) in WT mice; type: in vivo; conditions: given 3 hours after MCAO
T1 construct: from tissue; host or cells: mouse brain in vivo; acute hippocampal/brain slices from mice
T1 sequence (Q91YD4 whole entry): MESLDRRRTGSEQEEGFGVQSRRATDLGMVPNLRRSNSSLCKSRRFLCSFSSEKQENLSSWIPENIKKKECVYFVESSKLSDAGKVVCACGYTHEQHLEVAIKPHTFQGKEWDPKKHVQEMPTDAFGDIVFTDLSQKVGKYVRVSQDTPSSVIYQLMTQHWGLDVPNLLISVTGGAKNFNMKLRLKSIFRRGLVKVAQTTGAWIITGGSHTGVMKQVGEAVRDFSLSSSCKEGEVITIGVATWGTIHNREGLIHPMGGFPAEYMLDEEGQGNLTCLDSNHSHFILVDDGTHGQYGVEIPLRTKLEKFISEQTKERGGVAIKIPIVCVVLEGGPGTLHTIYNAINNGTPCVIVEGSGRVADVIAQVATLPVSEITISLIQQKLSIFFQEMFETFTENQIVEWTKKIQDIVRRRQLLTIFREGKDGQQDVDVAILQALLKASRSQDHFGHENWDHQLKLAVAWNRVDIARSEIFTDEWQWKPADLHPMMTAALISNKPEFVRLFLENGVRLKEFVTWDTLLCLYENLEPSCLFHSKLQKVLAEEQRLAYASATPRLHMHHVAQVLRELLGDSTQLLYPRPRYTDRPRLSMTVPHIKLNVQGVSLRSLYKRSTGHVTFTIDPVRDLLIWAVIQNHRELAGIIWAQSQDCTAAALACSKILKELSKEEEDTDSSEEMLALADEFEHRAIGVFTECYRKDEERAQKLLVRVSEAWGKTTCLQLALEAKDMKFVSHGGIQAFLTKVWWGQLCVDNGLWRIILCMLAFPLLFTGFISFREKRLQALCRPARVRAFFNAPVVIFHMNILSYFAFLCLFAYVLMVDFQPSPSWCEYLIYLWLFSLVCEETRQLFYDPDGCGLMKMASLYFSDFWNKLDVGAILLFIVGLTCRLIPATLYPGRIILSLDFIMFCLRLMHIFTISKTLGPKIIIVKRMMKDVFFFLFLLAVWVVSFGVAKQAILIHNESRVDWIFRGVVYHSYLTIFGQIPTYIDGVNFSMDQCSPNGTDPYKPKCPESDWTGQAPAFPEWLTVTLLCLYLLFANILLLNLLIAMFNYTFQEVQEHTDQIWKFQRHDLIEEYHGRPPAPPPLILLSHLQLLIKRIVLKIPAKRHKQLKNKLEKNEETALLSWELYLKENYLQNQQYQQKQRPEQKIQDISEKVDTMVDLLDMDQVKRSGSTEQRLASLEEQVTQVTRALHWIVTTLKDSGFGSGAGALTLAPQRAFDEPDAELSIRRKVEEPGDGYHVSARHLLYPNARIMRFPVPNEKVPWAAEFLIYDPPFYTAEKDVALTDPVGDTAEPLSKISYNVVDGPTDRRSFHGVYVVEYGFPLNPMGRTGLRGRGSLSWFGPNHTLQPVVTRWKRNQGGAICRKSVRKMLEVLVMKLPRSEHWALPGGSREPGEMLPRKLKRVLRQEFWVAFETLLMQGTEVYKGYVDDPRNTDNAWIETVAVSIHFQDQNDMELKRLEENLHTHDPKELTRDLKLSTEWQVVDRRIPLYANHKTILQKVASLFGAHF

[3] = mice, MCAO

TRPM2 ion channels, sequence (Q91YD4 whole entry): as above

Structure (SMILES)	infarct size following stroke [1]	infarct volume [2] [%]	effect on physiological variables such as blood pressure [3]
Clc1ccccc1C(c1ccccc1)(c1ccccc1)n1ccnc1 [CTZ, clotrimazole]	reduces infarct size in males, but not females	46.8±7.4	
CSCC[C@H](NC(=O)[C@H](CCC(=O)O)NC(=O)CNC(=O)[C@@H]1CCCN1C(=O)[C@H](CCC(=O)O)NC(=O)[C@H](CCCNC(=N)N)NC(=O)[C@H](CO)NC(=O)CNC(=O)[C@H](CCCNC(=N)N)NC(=O)[C@H](CCCNC(=N)N)NC(=O)[C@H](CCCNC(=N)N)NC(=O)[C@H](CCC(N)=O)NC(=O)[C@H](CCCNC(=N)N)NC(=O)[C@H](CCCNC(=N)N)NC(=O)[C@H](CCCCN)NC(=O)[C@H](CCCCN)NC(=O)[C@H](CCCNC(=N)N)NC(=O)CNC(=O)[C@@H](N)Cc1ccc(O)cc1)C(=O)N[C@@H](CC(C)C)C(=O)N1CCC[C@H]1C(=O)N[C@@H](CCCNC(=N)N)C(=O)N[C@@H](CCCCN)C(=O)N[C@@H](CC(C)C)C(=O)N[C@@H](CCCCN)C(=O)N[C@@H](CCCNC(=N)N)C(=O)N[C@H](C(=O)N[C@@H](CC(C)C)C(=O)N[C@@H](CCCNC(=N)N)C(=O)N[C@@H](CCC(N)=O)C(=O)N[C@@H](CCC(=O)O)C(=O)N[C@@H](Cc1ccccc1)C(=O)N[C@@H](Cc1c[nH]c2ccccc12)C(=O)N[C@H](C(=O)O)C(C)C)C(C)C [tat-M2NX] (H-YGRKKRRQRRRGSREPGEMLPRKLKRVLRQEFWV-OH; N-terminus and C-terminus assumed)			no effect
